Measured values as given in US7141553B2, “A3AR agonists for the treatment of inflammatory arthritis” (Can-Fite Biopharma Ltd. Israel, priority 2002, dated 2006).
Like-named read-outs stand apart in the source and are kept apart here.

Tests used:
[1] = system: adjuvant induced arthritis; test: Adjuvant arthritis model in Lewis rats; type: in vivo, rat
[2] = system: patients with active rheumatoid arthritis; test: Clinical trial in humans, effect on rheumatoid arthritis; type: in vivo, human; conditions: 0.1, 1 or 4 mg twice daily orally, up to 12 weeks; in at least half of 15 patients
Source text: Patients with active rheumatoid arthritis were chosen for the study. All chosen patients met the following criteria:
Rheumatoid arthritis patients that were included in the study, met the following inclusion criteria: • 1. Males and females 18 years of age or older • 2. Functional Class I, II, or III by the criteria of the American College of Rheumatology • 3. Active RA, as indicated by the presence of (a) ≧6 swollen joints; AND (b) ≧29 tender joints; AND at least one of he following: (c) Westergren ESR of ≧28 mm/hour; OR (d) CRP level of >2.0 mg/dL; OR (e) morning stiffness for >45 minutes • 4. History of unsuccessful treatment (documented intolerance or lack of efficacy as determined by the Investigator) with at least 1, but no more than 4, of the following disease modifying anti-rheumatic drugs (DMARDs): methotrexate, hydroxychloroquine, sulfasalazine, oral or injectable gold, azathioprine, leflunomide, minocycline, and penicillamine, alone or in combination Protocol
Patients included in the study were subjected to a 1 month washout period in which they ceased to take any DMARD. Following this one months washout the patients were administered twice daily with either with 0.1 mg, 1 mg of 4 mg of IB-MECA in a double-blind fashion. […]
Disease activity was assessed using standard criteria as laid down by the American College of Rheumatology (ACR).

[3] = system: healthy men; test: Single dose study in healthy men, safety and tolerability; type: in vivo, human; conditions: for maximal tolerated dose: once daily administration
Protocol: (§1) Two clinical studies were carried out: a single dose study and a repeat dose study. Both studies were parallel-group, double-blind, dose-rising, and placebo-controlled in design.
(§2) In the single dose study, 15 healthy men (3 groups of 5) received a single oral dose of IB-MECA (1, 5 or 10 mg) or placebo. In each group, 1 subject received placebo. In the repeated dose study, 28 healthy men (4 groups of 7) received repeated oral doses of IB-MECA (2, 3, 4 or 5 mg) or placebo every 12 h for 7 days. In each group, 2 subjects received placebo.
(§3) Healthy young men, aged 18–45 years.
(§4) In the single dose study, a solution with IB-MECA powder in 30% Cremophor RH40 (BASF) was used. In the repeated dose study, an aqueous 0.5% methylcellulose suspension (Methocel A4M Premium, The Dow Chemical Company) was used. In both studies, the study medication was taken orally as a drink, followed by 50 ml of tap water.
(§5) The following procedures were done: • Safety assesment: laboratory assessments (routine biochemistry and urinalysis), physical examination, 12-lead ECG, ambulatory ECG, pulmonary function testing (FEV1), vital signs (semi-recumbent in the single dose study; semi-recumbent and standing in the repeat dose study). Adverse events were recorded throughout both studies. • Determination of IB-MECA blood level: in the single dose study blood samples for assay of IB-MECA were taken immediately before and at 0.25, 0.5, 1, 2, 4, 8, 12, 24, and 48 h after dosing; in the repeat dose study—blood samples were taken immediately before and at 0.25, 0.5, 1, 2, 4, 8, and 12 h after dosing on Day 1, before dosing on Days 2–6, and before and at 0.25, 0.5, 1, 2, 4, 8, 12, and 24 h after dosing on Day 7.
(§6) Data from all subjects who received IB-MECA were included in the analysis of safety and tolerability (adverse events and laboratory safety variables). Numerical data and parameters were summarised using means or medians, and other descriptive statistics, according to the type and distribution of the data.

[4] = Single dose study in healthy men, plasma pharmacokinetics; type: in vivo, human
Protocol: as §2, §4, §5
Plasma samples were assayed for IB-MECA using LC/MS/MS. The lower limit of quantification (LLOQ) was 0.1 ng/mL. Intra-assay coefficients of variation (CV) were <5.0% and inter-assay CVs were <9.4%.
Maximum concentration (Cmax) and time to maximum concentration (tmax) were observed values. Other pharmacokinetic parameters (half-life, t^1/2; AUC; and clearance, CL/F) were calculated by non-compartmental methods using WinNonlin® software (version 3.0, Pharsight, Mountain View, Calif., US). Accumulation indices of Cmax and AUC were calculated as ratio of values at steady state (Day 7) to the values on Day 1.

[5] = system: healthy men; test: Repeat dose study in healthy men, safety and tolerability; type: in vivo, human
Protocol: as §1, §2, §3, §4, §5, §6

[6] = Plasma half life in mice; type: in vivo, mouse
[7] = Human studies, plasma half life (data not shown); type: in vivo
[8] = system: macrophages; conditions: dose dependent; cited from earlier work
[9] = system: collagen-induced arthritis; conditions: 0.5 mg/kg a day; cited from earlier work
[10] = single doses 1-10 mg, independent of dose
[11] = single oral dose 1 mg, mean (SD)
[12] = single oral dose 5 mg, mean (SD)
[13] = single oral dose 10 mg, mean (SD)

## CNC(=O)[C@H]1O[C@@H](n2cnc3c(NCc4cccc(I)c4)ncnc32)[C@H](O)[C@@H]1O [IB-MECA, N6-(3-iodobenzyl)-adenosine-5′-N-methyl-uronamide]
[1]; 1 μg/day PO, FIG. 1B
  inflammation as assessed by the inflammation intensity score: significant reduction
[1]; 10 μg a day, FIG. 3B, untreated shows destruction of synovial tissue and bone
  histological picture of the joint: appeared completely normal
[1]; 10 μg/kg PO a day, treatment from day 7 after disease induction, FIG. 1A
  inflammation as assessed by the inflammation intensity score: effective in abolishing almost completely the inflammation
[1]; 10 μg/kg a day PO, untreated rat paws extremely swollen and red
  appearance of paws: normal appearing paws
[1]; 100 μg/kg PO a day, treatment from day 7 after disease induction, FIG. 1A
  inflammation as assessed by the inflammation intensity score: effective in abolishing almost completely the inflammation
[2]
  disease symptoms (ACR criteria): significant improvement in disease symptoms
[3]; after single 5 mg dose, four subjects
  change in resting heart rate: small increase in resting heart rate
[3]; after single 10 mg dose, 2 subjects, considered drug-related
  resting heart rate: up to 115 beats/min
[3]
  maximal tolerated dose: about 5 mg
[3]; calculated on average human weight of 70 Kg
  maximal tolerated dose: about 70 micro ram/Kg
[3]; single dose of 10 mg
  adverse events within 12 h of dosing: 8
[3]; single doses of up to 5 mg
  adverse events within 12 h of dosing: no adverse events
[3]; single oral doses of up to 5 mg
  tolerability: safe and well tolerated
[4]; single daily dose of 5 mg and twice daily dose of 4 mg
  plasma level (Cmax): < 80 ng/mL
[4]; single daily dose of 5 mg and twice daily dose of 4 mg, read-out: plasma level (Cmax)
  Cmax: < 160 nM
[4]; single doses 1-10 mg
  tmax: 1 to 2 h
[4]; [10]
  apparent plasma clearance (CL/F): 4 to 7 L/h
  half-life: about 8.5 h
[4]; [11]
  AUC(0–48): 220.7 ng·h/mL
  AUC(inf): 225.2 (21.7) ng · h/mL
  CL/F: 4.5 (0.4) L/h
  t1/2: 8.7 (0.7) h
[4]; single oral dose 1 mg, mean (SD), n=4
  Cmax: 21.2 ng/mL
[4]; single oral dose 1 mg, median (range)
  tmax: 1 (1–2) h
[4]; [12]
  AUC(0–48): 872.3 ng·h/mL
  AUC(inf): 904.0 (221.9) ng · h/mL
  CL/F: 5.8 (1.4) L/h
  t1/2: 8.3 (0.2) h
[4]; single oral dose 5 mg, mean (SD), n=4
  Cmax: 81.6 ng/mL
[4]; single oral dose 5 mg, median (range)
  tmax: 1 (1–2) h
[4]; [13]
  AUC(0–48): 1780.0 ng·h/mL
  AUC(inf): 1813.0 (226.5) ng · h/mL
  CL/F: 5.6 (0.7) L/h
  t1/2: 8.6 (0.4) h
[4]; single oral dose 10 mg, mean (SD), n=4
  Cmax: 178.0 ng/mL
[4]; single oral dose 10 mg, median (range)
  tmax: 1 (1–2) h
[5]; 2-5 mg every 12 h for 7 days, vital signs, physical examination, FEV1, ECG
  safety profile: acceptable safety profile
[5]; Day 1 of repeated dosing, effect smaller on Day 7
  heart rate: dose-related increase in heart rate
[5]; repeat doses of up to 4 mg 12-hourly
  tolerability: safe and well tolerated
[5]; repeated doses of 5 mg 12-hourly
  adverse events within 12 h of dosing: 13
[5]; repeated doses of up to 4 mg 12-hourly
  adverse events within 12 h of dosing: 2
[5]; twice daily administration
  maximal tolerated dose: 4 mg
[6]
  half life: 1.5 h
[7]
  half life in human plasma: 8 to 10 h
[8]
  production of MIP-1α in macrophages: suppresses the production of MIP-1α
  production of the cytokines IL-1, IL-2, IL-6 as well as NO: inhibit, also in a dose dependent manner
[9]
  severity of joint inflammation: reduced the severity of joint inflammation
